Read-outs that look alike come from different tables or passages of the source.
Key:
Experiment in all cases: Kinase panel
Format in all cases: biochemical
[1] = target: ALK1/ACVRL1 (Homo sapiens, UniProt P37023); details: ALK1/ACVRL1, 1 µM; read-out: residual enzyme activity
In short: (§1)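 1 µM, one concentration only, biochemical panel format. Residual activity computed per kinase; threshold for identification: residual ≤40%.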

[2] = target: ALK5/TGFBR1 (Homo sapiens, UniProt P36897); details: ALK5/TGFBR1, 1 µM; read-out: residual enzyme activity
In short: as §1

[3] = target: C-MER (Homo sapiens, UniProt Q12866); details: read-out: residual enzyme activity
In short: as §1

[4] = target: C-MET (Homo sapiens, UniProt P08581); details: read-out: residual enzyme activity
In short: as §1

[5] = target: CAMK1A (Homo sapiens, UniProt Q14012); details: read-out: residual enzyme activity
In short: as §1

[6] = target: CK1A1L (Homo sapiens, UniProt Q8N752); details: read-out: residual enzyme activity
In short: as §1

[7] = target: CSK (Homo sapiens, UniProt P41240); details: read-out: residual enzyme activity
In short: as §1

[8] = target: DCAMKL2 (Homo sapiens, UniProt Q8N568); details: DCAMKL2, 1 µM; read-out: residual enzyme activity
In short: as §1

[9] = target: DYRK1/DYRK1A (Homo sapiens, UniProt Q13627); details: read-out: residual enzyme activity
In short: as §1

[10] = target: EGFR (Homo sapiens, UniProt P00533); details: read-out: residual enzyme activity
In short: as §1

[11] = target: FER (Homo sapiens, UniProt P16591); details: read-out: residual enzyme activity
In short: as §1

[12] = target: FLT3 (Homo sapiens, UniProt P36888); details: FLT3, 1 µM; read-out: residual enzyme activity
In short: as §1

[13] = target: GRK1 (Homo sapiens, UniProt Q15835); details: GRK1, 1 µM; read-out: residual enzyme activity
In short: as §1

[14] = target: JNK2 (Homo sapiens, UniProt P45984); details: read-out: residual enzyme activity
In short: as §1

[15] = target: MARK1 (Homo sapiens, UniProt Q9P0L2); details: MARK1, 1 µM; read-out: residual enzyme activity
In short: as §1

[16] = target: MEK1 (Homo sapiens, UniProt Q02750); details: MEK1, 1 µM; read-out: residual enzyme activity
In short: as §1

[17] = target: MEKK6 (Homo sapiens, UniProt O95382); details: MEKK6, 1 µM; read-out: residual enzyme activity
In short: as §1

[18] = target: MKK7 (Homo sapiens, UniProt O14733); details: MKK7, 1 µM; read-out: residual enzyme activity
In short: as §1

[19] = target: MLCK2/MYLK2 (Homo sapiens, UniProt Q9H1R3); details: MLCK2/MYLK2, 1 µM; read-out: residual enzyme activity
In short: as §1

[20] = target: MLK1/MAP3K9 (Homo sapiens, UniProt P80192); details: MLK1/MAP3K9, 1 µM; read-out: residual enzyme activity
In short: as §1

[21] = target: MNK2 (Homo sapiens, UniProt Q9HBH9); details: MNK2, 1 µM; read-out: residual enzyme activity
In short: as §1

[22] = target: NEK1 (Homo sapiens, UniProt Q96PY6); details: NEK1, 1 µM; read-out: residual enzyme activity
In short: as §1

[23] = target: NEK2 (Homo sapiens, UniProt P51955); details: NEK2, 1 µM; read-out: residual enzyme activity
In short: as §1

[24] = target: P38D/MAPK13 (Homo sapiens, UniProt O15264); details: read-out: residual enzyme activity
In short: as §1

[25] = target: PDGFRB (Homo sapiens, UniProt P09619); details: read-out: residual enzyme activity
In short: as §1

[26] = target: PKACG (Homo sapiens, UniProt P22612); details: read-out: residual enzyme activity
In short: as §1

[27] = target: PKG1A (Homo sapiens, UniProt Q13976); details: read-out: residual enzyme activity
In short: as §1

[28] = target: SNRK (Homo sapiens, UniProt Q9NRH2); details: read-out: residual enzyme activity
In short: as §1

[29] = target: STK16 (Homo sapiens, UniProt O75716); details: STK16, 1 µM; read-out: residual enzyme activity
In short: as §1

[30] = target: STK32B/YANK2 (Homo sapiens, UniProt Q9NY57); details: STK32B/YANK2, 1 µM; read-out: residual enzyme activity
In short: as §1

[31] = target: STK32C/YANK3 (Homo sapiens, UniProt Q86UX6); details: STK32C/YANK3, 1 µM; read-out: residual enzyme activity
In short: as §1

[32] = target: STK39/STLK3 (Homo sapiens, UniProt Q9UEW8); details: STK39/STLK3, 1 µM; read-out: residual enzyme activity
In short: as §1

[33] = target: TNK1 (Homo sapiens, UniProt Q13470); details: TNK1, 1 µM; read-out: residual enzyme activity
In short: as §1

Sequence of DCAMKL2 (Q8N568 whole entry, species assumed): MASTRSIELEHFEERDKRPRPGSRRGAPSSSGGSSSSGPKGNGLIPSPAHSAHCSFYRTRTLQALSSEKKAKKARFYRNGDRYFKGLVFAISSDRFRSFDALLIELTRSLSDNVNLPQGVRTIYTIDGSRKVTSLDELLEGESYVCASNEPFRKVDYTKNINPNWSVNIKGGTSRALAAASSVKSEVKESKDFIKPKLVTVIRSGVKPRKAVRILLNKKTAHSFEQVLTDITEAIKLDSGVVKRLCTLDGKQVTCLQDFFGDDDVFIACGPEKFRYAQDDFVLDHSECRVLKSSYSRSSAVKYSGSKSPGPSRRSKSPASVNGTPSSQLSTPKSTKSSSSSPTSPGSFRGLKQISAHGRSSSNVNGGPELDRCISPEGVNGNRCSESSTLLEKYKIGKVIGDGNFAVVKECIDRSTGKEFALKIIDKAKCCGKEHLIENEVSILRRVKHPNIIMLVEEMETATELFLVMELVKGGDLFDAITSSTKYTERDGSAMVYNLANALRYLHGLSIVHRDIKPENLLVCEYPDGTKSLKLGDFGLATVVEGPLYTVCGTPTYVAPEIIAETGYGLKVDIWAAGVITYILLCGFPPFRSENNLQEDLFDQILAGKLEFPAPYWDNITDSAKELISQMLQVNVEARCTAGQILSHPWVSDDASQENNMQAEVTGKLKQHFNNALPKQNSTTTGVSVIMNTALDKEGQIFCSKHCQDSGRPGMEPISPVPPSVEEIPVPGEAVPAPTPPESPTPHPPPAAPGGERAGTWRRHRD
Sequence of ALK1/ACVRL1 (P37023 22-503): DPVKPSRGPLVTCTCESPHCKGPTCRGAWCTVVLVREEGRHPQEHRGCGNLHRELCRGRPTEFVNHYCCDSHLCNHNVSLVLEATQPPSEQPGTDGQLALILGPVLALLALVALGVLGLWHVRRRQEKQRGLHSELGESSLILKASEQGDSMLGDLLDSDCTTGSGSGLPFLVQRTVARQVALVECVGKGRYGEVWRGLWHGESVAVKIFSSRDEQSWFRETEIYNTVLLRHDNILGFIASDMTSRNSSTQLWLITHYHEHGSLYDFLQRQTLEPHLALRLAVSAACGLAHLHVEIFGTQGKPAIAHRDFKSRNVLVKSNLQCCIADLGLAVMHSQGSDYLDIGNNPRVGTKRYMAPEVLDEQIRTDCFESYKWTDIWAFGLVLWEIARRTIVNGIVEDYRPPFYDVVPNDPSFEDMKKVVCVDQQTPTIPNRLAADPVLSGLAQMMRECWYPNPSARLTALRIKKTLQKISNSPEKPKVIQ
Sequence of STK32B/YANK2 (Q9NY57 whole entry): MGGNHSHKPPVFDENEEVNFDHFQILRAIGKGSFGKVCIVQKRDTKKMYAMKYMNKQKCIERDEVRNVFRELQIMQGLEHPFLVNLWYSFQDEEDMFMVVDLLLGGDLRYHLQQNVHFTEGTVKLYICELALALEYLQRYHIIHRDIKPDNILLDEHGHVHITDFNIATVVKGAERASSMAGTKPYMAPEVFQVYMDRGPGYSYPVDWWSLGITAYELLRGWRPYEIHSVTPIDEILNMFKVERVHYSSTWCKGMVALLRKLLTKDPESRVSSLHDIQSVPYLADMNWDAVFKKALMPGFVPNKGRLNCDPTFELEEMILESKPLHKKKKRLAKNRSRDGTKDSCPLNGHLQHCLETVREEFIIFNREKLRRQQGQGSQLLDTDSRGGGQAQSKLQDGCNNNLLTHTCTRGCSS
Sequence of CSK (P41240 whole entry, species assumed): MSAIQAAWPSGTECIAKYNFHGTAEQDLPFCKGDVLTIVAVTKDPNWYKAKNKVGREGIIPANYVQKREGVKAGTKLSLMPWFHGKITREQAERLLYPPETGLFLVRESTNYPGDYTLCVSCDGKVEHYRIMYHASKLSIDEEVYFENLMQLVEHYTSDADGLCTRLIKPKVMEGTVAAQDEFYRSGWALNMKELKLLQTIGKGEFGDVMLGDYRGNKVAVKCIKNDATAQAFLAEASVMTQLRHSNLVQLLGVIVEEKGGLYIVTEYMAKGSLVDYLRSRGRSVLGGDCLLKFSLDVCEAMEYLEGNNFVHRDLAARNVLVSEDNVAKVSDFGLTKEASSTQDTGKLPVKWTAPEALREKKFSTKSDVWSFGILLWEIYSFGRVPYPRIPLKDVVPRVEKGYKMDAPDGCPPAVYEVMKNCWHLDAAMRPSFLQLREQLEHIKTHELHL
Sequence of MEK1 (Q02750 whole entry, species assumed): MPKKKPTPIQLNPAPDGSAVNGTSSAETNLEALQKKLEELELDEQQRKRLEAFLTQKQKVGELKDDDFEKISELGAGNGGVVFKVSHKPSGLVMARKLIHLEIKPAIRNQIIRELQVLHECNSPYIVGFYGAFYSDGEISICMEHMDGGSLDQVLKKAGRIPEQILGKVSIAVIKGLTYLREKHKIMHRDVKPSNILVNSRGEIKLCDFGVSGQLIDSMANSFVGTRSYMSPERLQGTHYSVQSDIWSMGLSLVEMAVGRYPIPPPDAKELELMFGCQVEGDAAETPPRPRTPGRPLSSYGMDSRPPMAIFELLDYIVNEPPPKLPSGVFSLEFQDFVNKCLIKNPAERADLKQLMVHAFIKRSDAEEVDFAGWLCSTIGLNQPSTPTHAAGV
Sequence of FER (P16591 whole entry, species assumed): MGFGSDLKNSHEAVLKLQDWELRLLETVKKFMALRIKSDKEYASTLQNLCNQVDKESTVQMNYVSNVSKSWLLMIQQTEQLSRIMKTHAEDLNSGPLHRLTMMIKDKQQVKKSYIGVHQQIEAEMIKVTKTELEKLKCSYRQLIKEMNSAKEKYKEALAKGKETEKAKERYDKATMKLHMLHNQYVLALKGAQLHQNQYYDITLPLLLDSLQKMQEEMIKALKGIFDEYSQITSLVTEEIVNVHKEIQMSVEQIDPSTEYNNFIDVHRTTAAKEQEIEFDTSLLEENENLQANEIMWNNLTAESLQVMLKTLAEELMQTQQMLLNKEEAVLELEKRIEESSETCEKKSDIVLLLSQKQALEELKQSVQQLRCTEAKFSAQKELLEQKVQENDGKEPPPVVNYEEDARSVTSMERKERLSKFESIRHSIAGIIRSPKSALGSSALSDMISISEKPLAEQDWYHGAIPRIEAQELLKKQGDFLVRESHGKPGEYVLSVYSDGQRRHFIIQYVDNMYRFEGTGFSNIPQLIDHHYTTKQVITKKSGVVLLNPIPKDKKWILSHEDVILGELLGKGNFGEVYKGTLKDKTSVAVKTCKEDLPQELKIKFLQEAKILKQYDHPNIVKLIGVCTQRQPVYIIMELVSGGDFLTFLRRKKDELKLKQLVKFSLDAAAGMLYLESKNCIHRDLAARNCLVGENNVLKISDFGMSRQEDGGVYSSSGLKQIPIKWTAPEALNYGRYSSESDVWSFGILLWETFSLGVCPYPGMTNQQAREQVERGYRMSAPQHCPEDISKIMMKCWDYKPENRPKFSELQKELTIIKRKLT
Sequence of MNK2 (Q9HBH9 whole entry, species assumed): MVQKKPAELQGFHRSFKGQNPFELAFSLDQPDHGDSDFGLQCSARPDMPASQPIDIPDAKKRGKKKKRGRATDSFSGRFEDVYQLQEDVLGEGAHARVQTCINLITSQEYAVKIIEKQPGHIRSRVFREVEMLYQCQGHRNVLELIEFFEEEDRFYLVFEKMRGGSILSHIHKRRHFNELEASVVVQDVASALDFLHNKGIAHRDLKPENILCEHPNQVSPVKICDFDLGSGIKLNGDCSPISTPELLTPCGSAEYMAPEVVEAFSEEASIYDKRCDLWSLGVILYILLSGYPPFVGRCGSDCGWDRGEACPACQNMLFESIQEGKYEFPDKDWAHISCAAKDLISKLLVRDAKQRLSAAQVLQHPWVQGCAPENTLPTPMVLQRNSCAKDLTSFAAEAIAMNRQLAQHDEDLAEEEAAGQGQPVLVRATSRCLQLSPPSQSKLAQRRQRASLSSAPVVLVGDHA
Sequence of GRK1 (Q15835 whole entry, species assumed): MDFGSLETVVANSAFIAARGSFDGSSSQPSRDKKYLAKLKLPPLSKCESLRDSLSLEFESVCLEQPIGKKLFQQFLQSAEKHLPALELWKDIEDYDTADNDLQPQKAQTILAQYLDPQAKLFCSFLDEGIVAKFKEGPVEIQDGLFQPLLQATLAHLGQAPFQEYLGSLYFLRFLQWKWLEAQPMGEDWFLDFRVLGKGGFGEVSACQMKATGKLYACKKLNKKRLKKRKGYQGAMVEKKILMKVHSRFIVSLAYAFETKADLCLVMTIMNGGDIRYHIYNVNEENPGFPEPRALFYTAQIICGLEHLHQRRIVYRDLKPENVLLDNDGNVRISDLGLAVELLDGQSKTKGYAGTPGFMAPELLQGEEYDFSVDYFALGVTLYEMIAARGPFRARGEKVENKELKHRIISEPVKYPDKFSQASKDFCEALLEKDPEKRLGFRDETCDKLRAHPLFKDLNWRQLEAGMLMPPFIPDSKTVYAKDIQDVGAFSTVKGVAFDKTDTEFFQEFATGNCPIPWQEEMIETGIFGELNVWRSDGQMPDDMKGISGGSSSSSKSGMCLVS
Sequence of CK1A1L (Q8N752 whole entry): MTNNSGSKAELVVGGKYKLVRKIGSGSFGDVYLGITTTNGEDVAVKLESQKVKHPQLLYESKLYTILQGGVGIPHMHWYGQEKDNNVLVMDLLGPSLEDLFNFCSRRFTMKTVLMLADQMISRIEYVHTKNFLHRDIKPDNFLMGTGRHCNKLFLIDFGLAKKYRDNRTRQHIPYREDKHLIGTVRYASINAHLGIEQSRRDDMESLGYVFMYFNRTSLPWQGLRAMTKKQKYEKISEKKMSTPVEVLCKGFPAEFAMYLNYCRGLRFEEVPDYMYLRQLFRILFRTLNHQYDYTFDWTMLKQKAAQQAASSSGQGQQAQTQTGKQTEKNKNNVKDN
Sequence of STK16 (O75716 whole entry, species assumed): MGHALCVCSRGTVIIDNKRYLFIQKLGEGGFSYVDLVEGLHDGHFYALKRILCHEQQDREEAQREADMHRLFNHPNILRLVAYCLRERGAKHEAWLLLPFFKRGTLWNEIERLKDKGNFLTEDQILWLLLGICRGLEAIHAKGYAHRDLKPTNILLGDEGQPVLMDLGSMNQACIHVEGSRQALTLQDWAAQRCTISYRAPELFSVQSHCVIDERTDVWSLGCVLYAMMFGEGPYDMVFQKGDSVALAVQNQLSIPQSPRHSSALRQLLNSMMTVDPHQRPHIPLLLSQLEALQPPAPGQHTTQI

Row | SMILES | remaining activity at 1 µM [1] [%] | remaining activity at 1 µM [2] [%] | remaining activity at 1 µM [7] [%] | remaining activity at 1 µM [8] [%] | remaining activity at 1 µM [9] [%] | remaining activity at 1 µM [10] [%] | remaining activity at 1 µM [11] [%] | remaining activity at 1 µM [12] [%] | remaining activity at 1 µM [13] [%] | remaining activity at 1 µM [15] [%] | remaining activity at 1 µM [16] [%] | remaining activity at 1 µM [17] [%] | remaining activity at 1 µM [18] [%] | remaining activity at 1 µM [19] [%] | remaining activity at 1 µM [20] [%] | remaining activity at 1 µM [21] [%] | remaining activity at 1 µM [22] [%] | remaining activity at 1 µM [23] [%] | remaining activity at 1 µM [25] [%] | remaining activity at 1 µM [26] [%] | also measured
1 | Cc1ccc(Nc2ncc3c(n2)C2(CC2)C(=O)N(c2cc(NC(=O)c4cccc(C(F)(F)F)c4)ccc2C)C3)cn1 [Compound 51, N-(4-methyl-3-(2'-((6-methylpyridin-3-yl)amino)-7'-oxo-5'H-spiro[cyclopropane-1,8'-pyrido[4,3-d]pyrimidine]-6'(7'H)-yl)phenyl)-3-(trifluoromethyl)benzamide] | > 40 | > 40 | ≤ 40 | > 40 | > 40 | ≤ 40 | ≤ 40 | ≤ 40 | > 40 | > 40 | > 40 | > 40 | > 40 | ≤ 40 | ≤ 40 | > 40 | > 40 | > 40 | ≤ 40 | ≤ 40 | remaining activity at 1 µM ([3]; c-MER): > 40%; remaining activity at 1 µM ([4]; c-MET): > 40%; remaining activity at 1 µM ([5]; CAMKla): > 40%; remaining activity at 1 µM ([6]; CKlalL): > 40%; remaining activity at 1 µM ([14]; INK2, 1 µM): ≤ 40%; remaining activity at 1 µM ([24]; P38d/MAPK13, 1 µM): > 40%; remaining activity at 1 µM ([27]; PKGla): > 40%; remaining activity at 1 µM [28]: > 40%; remaining activity at 1 µM [29]: > 40%; remaining activity at 1 µM [30]: ≤ 40%; remaining activity at 1 µM [31]: > 40%; remaining activity at 1 µM [32]: > 40%; remaining activity at 1 µM [33]: ≤ 40%
2 | Cc1cn(-c2cc(C(=O)Nc3ccc(C)c(N4Cc5cnc(NC6CC6)nc5C5(CC5)C4=O)c3)cc(C(F)(F)F)c2)cn1 [Compound 8, N-(3-(2'-(cyclopropylamino)-7'-oxo-5'H-spiro[cyclopropane-1,8'-pyrido[4,3-d]pyrimidine]-6'(7'H)-yl)-4-methylphenyl)-3-(4-methyl-1H-imidazol-1-yl)-5-(trifluoromethyl)benzamide] | > 40 | > 40 | ≤ 40 | > 40 | > 40 | ≤ 40 | ≤ 40 | ≤ 40 | > 40 | > 40 | > 40 | > 40 | > 40 | ≤ 40 | > 40 | > 40 | > 40 | > 40 | ≤ 40 | ≤ 40 | remaining activity at 1 µM ([3]; C-MER): > 40%; remaining activity at 1 µM ([4]; C-MET): > 40%; remaining activity at 1 µM ([5]; CAMK1A): > 40%; remaining activity at 1 µM ([6]; CK1A1L): > 40%; remaining activity at 1 µM ([14]; JNK2, 1 µM): > 40%; remaining activity at 1 µM ([24]; P38D/MAPK13, 1 µM): > 40%; remaining activity at 1 µM ([27]; PKG1A): > 40%; remaining activity at 1 µM [28]: > 40%; remaining activity at 1 µM [29]: > 40%; remaining activity at 1 µM [30]: ≤ 40%; remaining activity at 1 µM [31]: > 40%; remaining activity at 1 µM [32]: > 40%; remaining activity at 1 µM [33]: ≤ 40%

Source: EP4722212A1, “NOVEL COMPOUND FOR INHIBITING PROTEIN KINASES AND PHARMACEUTICAL COMPOSITION COMPRISING SAME” (Magicbullettherapeutics Co., Ltd., priority 2023, dated 2024)
